Test results published in patent US6399567B1, “Cyclic hexapeptides having antibiotic activity” (Fujisawa Pharmaceutical Co., Ltd., priority 1996, dated 2002).

Tests used:
[1] = test system: Aspergillus fumigatus FP1305; assay: Antimicrobial activity, serial broth dilution method (96-well microtiter plate); format: cell-based; settings: yeast nitrogen base dextrose medium, 1×10^5 cfu/ml, 37° C. for 24 hours, microscopic observation
Experimental: (§1) Test (Antimicrobial activity):
(§2) Test Compound The object compound of Example 1
(§3) Antimicrobial activity of the object compound of Example 1 was determined by a serial broth dilution method using 96-well microtiter plate in 100 μl of MEM (Eagle's minimum essential medium) for Candida albicans and in 100 μl of yeast nitrogen base dextrose medium for both Asperaillus fumigatus and Cryptococcus neoformans. The inoculum was adjusted to 1×10^5 colony forming units/ml. Candida albicans and Asperaillus fumigatus were cultured at 37° C. for 24 hours and Cryptococcus neoformans was cultured at 37° C. for 48 hours in 5% CO2 incubator. After incubation, the growth inhibition of microorganisms in each well was determined by microscopic observation. The results were shown as MEC (minimum effective concentration: μg/ml) value (Table 2).

Candida albicans FP633 = assay: as above; format: cell-based; settings: MEM, 1×10^5 cfu/ml, 37° C. for 24 hours, microscopic observation
Experimental: as §1, §2, §3

[2] = Solubility (physico-chemical properties)

Row | SMILES | MEC (minimum effective concentration) [1] [µg/mL] | MEC (minimum effective concentration) (Candida albicans FP633) [µg/mL] | melting point | Solubility ([2]; acetone) | Solubility ([2]; chloroform) | Solubility ([2]; ethyl acetate) | Solubility ([2]; methanol) | Solubility ([2]; water)
1 | CCCCCCCCCCCCCCCC(=O)NC1CC(O)C(O)NC(=O)C2C(O)CCN2C(=O)C(C(O)CC(N)=O)NC(=O)C(C(O)C(O)c2ccc(O)c(OS(=O)(=O)[O-])c2)NC(=O)C2CC(O)CN2C(=O)C(C(C)O)NC1=O.[Na+] (stereo not drawn) [Example 1] | 0.08 | 0.04 | 165 to 170 °C (dec.) | slightly soluble | insoluble | slightly soluble | soluble | soluble
2 | CC(O)C1NC(=O)C(N)CC(O)C(O)NC(=O)C2C(O)CCN2C(=O)C(C(O)CC(N)=O)NC(=O)C(C(O)C(O)c2ccc(O)c(OS(=O)(=O)O)c2)NC(=O)C2CC(O)CN2C1=O (stereo not drawn) [Example 2] |  |  | 150 to 155 °C |  |  |  |  | 
